# Paper PMC6154633, “In Vitro Anticancer Activity and Structural Characterization of Ubiquinones from Antrodia cinnamomea Mycelium” (Molecules : A Journal of Synthetic Chemistry and Natural …, 2017)
# How the values were obtained:
# MDCK cells = assay: Cytotoxicity, cell counting kit-8 assay, MDCK normal cell line; type: cell-based; settings: Canis lupus familiaris, non-malignant cell line, 24 h treatment, mean n = 3
# Experimental: (§1) Three human cancer cell lines (A549, HepG2 and PC3) and normal cell line (MDCK) were obtained from the ATCC (Manassas, VA, USA) and grown on Eagle’s minimum essential medium (EMEM, GIBCO, Waltham, MA, USA) supplemented with F12 medium containing 10% FBS, 100 IU/mL penicillin and 100 μg/mL streptomycin [17].
# (§2) Viability of the human cancer cell lines and normal cell line treated with different concentrations of A. cinnamomea extracts, subfractions, and isolates was evaluated using the cell counting kit-8 assay. Briefly, a total of 5 × 10^3 cells/well (A549, HepG2, PC3, or MDCK cells) were seeded into 96-well plates for 12 h, and the cells were treated with various concentrations of the isolated compounds (0.01–100 μM, double dilution method) for 24 h. The original medium was removed, 10% of the cell counting kit-8 in PBS was added to each well, and the plates were incubated for 2 h. The absorbance was measured at 540 nm using an enzyme-linked immunosorbent assay (ELISA) plate reader.
# (§3) All experiments were carried out in triplicate, and each experiment was repeated three times. Data analysis was carried out using SPSS statistical package version 18.0 (SPSS, Inc., Armonk, NY, USA). The IC50 values (the concentration of drug necessary to induce 50% inhibition) were measured for all of the tested drugs using the Probit test in the SPSS software. The cell cycle distribution values of mean and standard deviation (mean ± SD) and 95% confidence intervals (CI) of means to verify the statistical significance of all parameters were calculated. The p-values of < 0.05 were adopted as statistically significant. All data are presented in this report as means ± SD of three replicates from three separate experiments.
# HepG2 cells [1] = assay: Cytotoxicity, cell counting kit-8 assay, HepG2; type: cell-based; settings: Homo sapiens, 24 h treatment, mean n = 3
# Experimental: as §1, §2, §3
# PC3 cells = assay: Cytotoxicity, cell counting kit-8 assay, PC3; type: cell-based; settings: Homo sapiens, PC-3, mean n = 3
# Experimental: as §1, §2, §3
# A549 cells = assay: Cytotoxicity, cell counting kit-8 assay, A549; type: cell-based; settings: Homo sapiens, mean n = 3
# Experimental: as §1, §2, §3
# [2] = test system: A549, HepG2, and PC3 cell lines; assay: Cytotoxicity against three human cancer cell lines (summary statements); type: cell-based; settings: in words
# Experimental: as §1, §2, §3
# HepG2 cells [3] = assay: Cell cycle distribution analysis by flow cytometry (PI staining); type: cell-based, human; settings: for G1 (%) / G2-M (%) / S (%) / sub G1 (%): 24 h, HepG2, mean ± SD
# Experimental: Stock solutions of 4-acetylantrocamol LT3 (20 mM) were prepared by dissolving them in DMSO, and appropriate working dilutions were prepared with the cell culture medium prior to the experiments. For cell cycle distribution analysis, HepG2 cells were treated with DMSO (control) and 4-acetylantrocamol LT3 for 24 h. The cells were then fixed in ice-cold 70% methanol for overnight. After an additional wash with PBS, the cell pellets were stained with 1 mL of propidium iodide (PI) staining solution containing 200 μg of PI in 1 mL of PBS containing 2 mg of DNase free RNase for 30 min. Acquisition and analysis were performed by flow cytometry (FACSCalibur flow cytometer, Becton, Dickinson and Co., Franklin Lakes, NJ, USA) with excitation at 488 nm. Data on each sample represent the percentage of cells in the sub-G1, G1, S, G2/M phases of the cell cycle, respectively.
# as §3
SMILES,IC50 (MDCK cells) [µM],IC50 (HepG2 cells [1]) [µM],IC50 (PC3 cells; 24 h treatment) [µM],"IC50 (A549 cells; A549, 24 h, 24 h treatment) [µM]",other results
"COC1=C(OC)[C@H](O)[C@H](C/C=C(\C)CC/C=C(\C)C/C=C/C(C)(C)O)[C@@H](C)C1=O [Compound 4, antrocamol LT3]",> 100,0.106,0.001,–,–
"COC1=C(OC)[C@H](O)[C@H](C/C=C(\C)CC/C=C(\C)CCC=C(C)C)[C@@H](C)C1=O [Compound 5, antroquinonol]",10.5,0.044,0.073,0.421,–
"COc1cc(C)c(O)c(OC)c1O [Compound 10, 2,4-dimethoxy-6-methyl-benzene-1,3-diol]",> 100,> 100,> 100,> 100,activity against the cancer cell lines [2]: poor activity
"COc1cc(C)c(OC)c2c1OCO2 [Compound 9, 4,7-dimethoxy-5-methyl-1,3-benzodioxole]",> 100,> 100,13.3,> 100,activity against the cancer cell lines [2]: poor activity
"COC1=CC(=O)C(CC=C(C)CCC=C(C)CCC=C(C)C)=C(C)C1=O [Compound 1, 5-methoxy-3-methyl-2-(3,7,11-trimethyldodeca-2,6,10-trienyl)cyclohexa-2,5-diene-1,4-dione]",> 100,> 100,0.014,0.382,–
"CC(=O)O[C@H]1C(=O)[C@@]2(C)[C@H]([C@H](OC(=O)c3ccccc3)[C@]3(O)C[C@H](OC(=O)[C@H](O)[C@@H](NC(=O)c4ccccc4)c4ccccc4)C(C)=C1C3(C)C)[C@]1(OC(C)=O)CO[C@@H]1C[C@@H]2O [Taxol, reference compound]",–,–,–,–,"IC50 (A549 cells; A549, positive control, unit given in row label): 0.000354 µM; IC50 (PC3 cells; positive control, unit given in row label): 0.000461 µM"
"COC1=C(OC)[C@H](OC(C)=O)[C@H](C/C=C(\C)CC/C=C(\C)C[C@H]2C[C@@H](C)C(=O)O2)[C@@H](C)C1=O [Compound 8, 4-acetylantroquinonol B]",> 100,> 100,20.3,35.9,–
"COC1=C(OC)[C@H](OC(C)=O)[C@H](C/C=C(\C)CC/C=C(\C)CCC=C(C)C)[C@@H](C)C1=O [Compound 6, 4-acetylantroquinonol]",41.6,0.075,2.31,0.611,–
"COC1=C(OC)[C@H](OC(C)=O)[C@H](C/C=C(\C)CC/C=C(\C)C/C=C/C(C)(C)O)[C@@H](C)C1=O [Compound 2, 4-acetylantrocamol LT3]",> 100,0.128,4.29,0.027,"G1 (%) (HepG2 cells [3]; 1 μM): 37.4 ± 4.2%; G2-M (%) (HepG2 cells [3]; 1 μM): 33.6 ± 4.7%; S (%) (HepG2 cells [3]; 1 μM): 15.4 ± 1.6%; sub G1 (%) (HepG2 cells [3]; 1 μM): 6.0 ± 0.7%; G1 (%) (HepG2 cells [3]; 10 μM): 32.9 ± 2.4%; G2-M (%) (HepG2 cells [3]; 10 μM): 33.6 ± 5.6%; S (%) (HepG2 cells [3]; 10 μM): 19.3 ± 4.9%; sub G1 (%) (HepG2 cells [3]; 10 μM): 9.2 ± 2.1%; sub-G1 phase accumulation compared with control cells (HepG2 cells [3]; HepG2, 24 h, dose dependent): 4–7 fold"
"COc1cc([C@@H]2c3cc4c(cc3[C@@H](O[C@@H]3O[C@@H]5CO[C@@H](C)O[C@H]5[C@H](O)[C@H]3O)[C@H]3COC(=O)[C@H]23)OCO4)cc(OC)c1O [Vepesid, reference compound]",–,4.05,–,–,–
"COC1=C(OC)[C@H](O)[C@H](C/C=C(\C)CC/C=C(\C)C[C@H]2C[C@@H](C)C(=O)O2)[C@@H](C)C1=O [Compound 7, antroquinonol B]",> 100,21.4,1.03,6.03,–
"CC(C)=CCOc1ccc(C2=C(CC(C)C)C(=O)OC2=O)cc1 [Compound 11, antrodin A]",> 100,90.4,> 100,> 100,activity against the cancer cell lines [2]: poor activity
"COC1=C(OC)C(=O)C(C/C=C(\C)CC/C=C(\C)CCC=C(C)C)=C(C)C1=O [Compound 3, quinone Q3]",> 100,> 100,0.06,4.16,–
